{
  "source": "patent US11046673B1",
  "about": "“Tetrazolinone compounds and its use” (SUMITOMO CHEMICAL COMPANY, LIMITED, priority 2016, dated 2021)",
  "test_system": "wheat rust fungi (Puccinia recondita)",
  "test": "Test Example 13 / Comparative Test Example 1: wheat rust, foliar spray",
  "assay_type": "in vivo",
  "conditions": "wheat (cv Shirogane), 12.5 ppm foliar spray, inoculated after 5 days",
  "description": "A plastic pot was filled with soil and thereto wheat (cv; Shirogane) seeds were sown and the plants were grown in a greenhouse for 9 days. Any of the present compounds 1, 2, 3, 5, 6, 7, 8, 9, 10, 12, 13, 14, 15, 18, 19, 20, 21, 26, 27 and 28 each of which was made to a formulation according to the similar method to that of Formulation Example 6, was adjusted with water so as to be 12.5 ppm, and the adjusted solutions were sprayed to foliar parts so as to adhere adequately on the leaves of the above-mentioned wheat. After spraying the adjusted solutions, the plants were air-dried and were then cultivated at 20° C. under lighting for 5 days. The spores of wheat rust fungi (Puccinia recondita) were sprinkling-inoculated. After the inoculation, the plants were placed under a dark and humid condition at 23° C. for 1 day and were then cultivated at 20° C. under lighting for 8 days, and a lesion area was observed.\nA plastic pot was filled with soils and thereto was seeded wheat (cv; Shirogane) and the plants were grown in a greenhouse for 9 days. 1-(2-{[2-methyl-4-(1-methyl-1H-pyrazol-3-yl)phenoxy]methyl}-3-methylphenyl)-4-m ethyl-4,5-dihydrotetrazole-5-one which was made to a formulation according to the similar method to that of Formulation Example 6 was adjusted with water so as to be 12.5 ppm. […]",
  "data": [
    {"smiles": "Cc1cc(-c2ccn(C)n2)ccc1OCc1c(C)cccc1-n1nnn(C)c1=O", "note": "[1-(2-{[2-methyl-4-(1-methyl-1H-pyrazol-3-yl)phenoxy]methyl}-3-methylphenyl)-4-m ethyl-4,5-dihydrotetrazole-5-one]", "values": [
      {"measurement": "lesion area compared to the lesion area in untreated plants", "result": "≥ 70", "unit": "%"}
    ]}
  ]
}
